We go through 17 compounds from PubChem BioAssay (NCI).

The structures appear in SMILES notation.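 96-well plates; 48 h exposure; 5 concentrations. Endpoints by linear interpolation between flanking doses. Not reached: highest tested concentration assigned. GI50 is the concentration that inhibits growth by half. TGI marks complete inhibition of growth.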 A value given as a limit tells only on which side of the number the result lay.

Some test systems named below: MDA-MB-231 breast; SK-MEL-5 melanoma; OVCAR-8 ovarian; TK-10 renal; NCI-H522 lung; SN12C renal; SF-539 CNS; SW-620 colon; SK-MEL-2 melanoma; EKVX NSCLC.
Common to all, as to assay: inhibition of tumour cell growth, NCI panel, 48 h

With `NC(=O)c1c(NC(=O)c2ccc3c(c2)OCO3)sc2c1CCC(=O)C2`, the GI50 was 2.44 µM in the assay with MDA-MB-231 breast; 1.77 µM in the assay on SK-MEL-5 melanoma; 1.75 µM in the assay on OVCAR-8 ovarian; 3.32 µM in the assay with TK-10 renal; 0.355 µM with NCI-H522 lung; 3.03 µM in the assay on SN12C renal. Besides, the TGI was 6.89 µM with MDA-MB-231 breast; 3.17 µM in the assay on SK-MEL-5 melanoma; more than 100 µM with OVCAR-8 ovarian; more than 100 µM with TK-10 renal; 2.29 µM with NCI-H522 lung; more than 100 µM in the assay with SN12C renal.

For `Cn1cc(C2=C(c3cccc(OCC(O)CO)c3)C(=O)NC2=O)c2ccccc21` (stereo not given), the GI50 with SF-539 CNS, in the assay with SW-620 colon, in the assay on MDA-MB-231 breast, in the assay with SK-MEL-5 melanoma, in the assay on OVCAR-8 ovarian and in the assay with SK-MEL-2 melanoma was more than 25 µM each time. Further, the GI50 in the assay on TK-10 renal, in the assay with NCI-H522 lung and with SN12C renal was more than 25 µM each time. Besides, the TGI in the assay with SF-539 CNS, in the assay with SW-620 colon, in the assay on MDA-MB-231 breast, in the assay with SK-MEL-5 melanoma, in the assay with OVCAR-8 ovarian and with SK-MEL-2 melanoma was more than 25 µM throughout. The TGI with TK-10 renal, in the assay with NCI-H522 lung and with SN12C renal was more than 25 µM in each case.

On to `O=C(Nc1ccc(Cl)c(Cl)c1)O/N=C\c1c(Cl)ccc([N+](=O)[O-])c1Cl`, for which the GI50 in the assay with SF-539 CNS is 2.64 µM; with MDA-MB-231 breast, 1.56 µM; in the assay with SK-MEL-5 melanoma, 2.38 µM; in the assay with OVCAR-8 ovarian, 2.62 µM; with SK-MEL-2 melanoma, 2.34 µM; in the assay on NCI-H522 lung it was 1.34 µM. Further, the GI50 in the assay with SN12C renal is 2.59 µM. In addition, the TGI in the assay on SF-539 CNS came to 8.36 µM; with MDA-MB-231 breast, 3.41 µM; in the assay on SK-MEL-5 melanoma it was 8.59 µM; with OVCAR-8 ovarian, 8.47 µM; in the assay on SK-MEL-2 melanoma, 4.98 µM; in the assay on NCI-H522 lung it was 2.88 µM. The same compound displayed a TGI with SN12C renal of 8.52 µM.

Consider `Nc1[nH]nc2nc(-c3cccs3)cc(C(F)(F)F)c12`, for which the GI50 in the assay on SF-539 CNS was more than 25 µM; with SW-620 colon, more than 25 µM; in the assay on MDA-MB-231 breast, more than 25 µM; in the assay on SK-MEL-5 melanoma, more than 25 µM; with OVCAR-8 ovarian it was more than 25 µM; with SK-MEL-2 melanoma, more than 22.3 µM. For the same compound, the figures for the GI50 with TK-10 renal, in the assay on NCI-H522 lung and in the assay on SN12C renal were more than 19.2 µM, more than 13.9 µM and more than 25 µM, respectively. The TGI in the assay with SF-539 CNS, with SW-620 colon, in the assay with MDA-MB-231 breast, in the assay with SK-MEL-5 melanoma, in the assay with OVCAR-8 ovarian and in the assay on SK-MEL-2 melanoma was more than 25 µM throughout. In addition, the TGI in the assay with TK-10 renal, in the assay on NCI-H522 lung and in the assay with SN12C renal was more than 25 µM each time.

For `CCc1cccc(C)c1NC(=O)C(=O)Cc1nc2ccccc2s1`, the TGI in the assay with SF-539 CNS, in the assay with SW-620 colon, in the assay with EKVX NSCLC, in the assay with SK-MEL-5 melanoma, in the assay with OVCAR-8 ovarian and in the assay with SK-MEL-2 melanoma was more than 100 µM in each case. For the same compound, the TGI with TK-10 renal, in the assay on NCI-H522 lung and with SN12C renal was more than 100 µM throughout.

Turning to `CC(C)c1cccc2sc(NC(=O)C(=O)C(C#N)c3cccc4ccccc34)nc12` (stereo not given), the TGI in the assay with SF-539 CNS is more than 100 µM; in the assay with SW-620 colon it was more than 100 µM; with EKVX NSCLC, 67.2 µM; in the assay with SK-MEL-5 melanoma, more than 100 µM; with OVCAR-8 ovarian, more than 100 µM; in the assay with SK-MEL-2 melanoma it was more than 100 µM. Further, the TGI in the assay with TK-10 renal, in the assay on NCI-H522 lung and in the assay with SN12C renal was more than 100 µM each time.

Regarding `CCSCCCN(CCCSCC)CCCSCC`, the TGI in the assay with SF-539 CNS, in the assay with SW-620 colon, in the assay with MDA-MB-231 breast, in the assay on SK-MEL-5 melanoma, in the assay on OVCAR-8 ovarian and in the assay on NCI-H522 lung was more than 100 µM each time. In the assay with SN12C renal, this compound returned a TGI of more than 100 µM.

On to `COC(=O)CCC(NC(=S)N/N=C/c1ccco1)C(=O)OC` (stereo not given), for which the TGI with SF-539 CNS, in the assay with SW-620 colon, in the assay with EKVX NSCLC, with SK-MEL-5 melanoma, with OVCAR-8 ovarian and with SK-MEL-2 melanoma was more than 100 µM in each case. Moreover, the TGI in the assay on TK-10 renal, in the assay on NCI-H522 lung and in the assay on SN12C renal was more than 100 µM each time.

`C[C@]12CCC3[C@@H](CC[C@@H]4c5nonc5CC[C@]34C)C1C/C(=N/O)C2=O` (stereo not given in full): the TGI was more than 100 µM with SF-539 CNS; more than 100 µM in the assay on SW-620 colon; more than 100 µM in the assay on EKVX NSCLC; more than 100 µM in the assay with SK-MEL-5 melanoma; more than 100 µM with OVCAR-8 ovarian; 52 µM in the assay with SK-MEL-2 melanoma. Moreover, the TGI in the assay with TK-10 renal, in the assay with NCI-H522 lung and in the assay with SN12C renal was more than 100 µM in each case.

On to `O=C(c1ccccc1)c1cccc(C(=O)c2ccccc2)c1`, for which the TGI in the assay with SF-539 CNS, in the assay with SW-620 colon, in the assay on EKVX NSCLC, with SK-MEL-5 melanoma, in the assay on OVCAR-8 ovarian and in the assay on SK-MEL-2 melanoma was more than 100 µM throughout. Also, the TGI in the assay with TK-10 renal, in the assay with NCI-H522 lung and in the assay on SN12C renal was more than 100 µM in each case.

Turning to `O=C(Nc1cccc(NC(=O)Nc2cc(C(F)(F)F)ccc2Cl)c1)Nc1cc(C(F)(F)F)ccc1Cl`, the GI50 is 6.15 µM in the assay on SF-539 CNS; 3.28 µM in the assay on SW-620 colon; 2.3 µM in the assay on MDA-MB-231 breast; 3.2 µM with SK-MEL-5 melanoma; 2.05 µM with OVCAR-8 ovarian; 2.53 µM with SK-MEL-2 melanoma. In addition, the GI50 is 2.57 µM in the assay with TK-10 renal, 1.21 µM in the assay on NCI-H522 lung and 2.56 µM in the assay with SN12C renal. Further, the TGI with SF-539 CNS is 32 µM; with SW-620 colon it was more than 100 µM; with MDA-MB-231 breast, 22 µM; with SK-MEL-5 melanoma, 65.6 µM; with OVCAR-8 ovarian it was 15.7 µM; in the assay with SK-MEL-2 melanoma, 7.33 µM. Further, the TGI in the assay on TK-10 renal came out at 11.5 µM; in the assay on NCI-H522 lung, 7.78 µM; in the assay with SN12C renal it was 23.9 µM.

As to `CN1c2ccccc2N(C)C23N(C)c4ccccc4N(C)C12N(C)c1ccccc1N3C` (stereo not given), the TGI in the assay on SF-539 CNS, in the assay with SW-620 colon, in the assay on EKVX NSCLC, in the assay with SK-MEL-5 melanoma, in the assay with OVCAR-8 ovarian and with SK-MEL-2 melanoma was more than 100 µM in each case. Further, the TGI in the assay with TK-10 renal, with NCI-H522 lung and with SN12C renal was more than 100 µM each time.

Consider `[N-]=[N+]=NC(CI)c1cn([C@H]2C[C@H](O)[C@@H](CO)O2)c(=O)[nH]c1=O` (stereo not given in full), for which the TGI in the assay with SF-539 CNS, in the assay with SW-620 colon, with EKVX NSCLC, in the assay with SK-MEL-5 melanoma, with OVCAR-8 ovarian and in the assay with SK-MEL-2 melanoma was more than 100 µM throughout. The TGI with TK-10 renal, in the assay on NCI-H522 lung and in the assay on SN12C renal was more than 100 µM in each case.

With `COc1cc(C2C(Cl)C(=O)N2NC(=O)c2ccc(N)cc2)ccc1O` (stereo not given), the TGI in the assay with SF-539 CNS was 62.1 µM; in the assay with SW-620 colon it was 35.2 µM; in the assay on EKVX NSCLC, more than 100 µM; with SK-MEL-5 melanoma, more than 100 µM; in the assay with OVCAR-8 ovarian, 47.4 µM; in the assay with SK-MEL-2 melanoma it was more than 100 µM. Moreover, the results for the TGI in the assay on TK-10 renal, with NCI-H522 lung and with SN12C renal were more than 100 µM, 35 µM and more than 100 µM, respectively.

Take `O=[N+]([O-])c1cccc([As]=[As]c2cccc([N+](=O)[O-])c2)c1` (stereo not given): the GI50 in the assay on SF-539 CNS was 0.0737 µM; in the assay with SW-620 colon, 0.046 µM; in the assay with MDA-MB-231 breast it was 0.0776 µM; with SK-MEL-5 melanoma, 0.162 µM; with OVCAR-8 ovarian, 0.141 µM; in the assay on SK-MEL-2 melanoma, 0.13 µM. In addition, the GI50 in the assay with TK-10 renal is 0.132 µM; in the assay with NCI-H522 lung it was 0.0154 µM; in the assay on SN12C renal, 0.11 µM. The TGI with SF-539 CNS was determined as 0.201 µM; in the assay on SW-620 colon it was 0.195 µM; in the assay on MDA-MB-231 breast, 0.212 µM; in the assay on SK-MEL-5 melanoma, 0.324 µM; in the assay with OVCAR-8 ovarian, 0.284 µM; in the assay on SK-MEL-2 melanoma, 0.272 µM. The TGI in the assay with TK-10 renal is 0.266 µM; with NCI-H522 lung, 0.0304 µM; in the assay with SN12C renal, 0.239 µM.

As to `CC(=O)C1C(=O)C(=O)N(c2ccccc2C(C)C)C1=O` (stereo not given), the TGI with SF-539 CNS, in the assay on SW-620 colon, in the assay with EKVX NSCLC, in the assay with SK-MEL-5 melanoma, in the assay with OVCAR-8 ovarian and with SK-MEL-2 melanoma was more than 100 µM each time. The TGI in the assay with TK-10 renal, with NCI-H522 lung and in the assay on SN12C renal was more than 100 µM in each case.

For the compound `COc1ccc(OC)c2c1C(=O)C1CC1(Br)C2=O` (stereo not given), the TGI with SF-539 CNS, with SW-620 colon, in the assay on EKVX NSCLC, in the assay with SK-MEL-5 melanoma, with OVCAR-8 ovarian and in the assay on SK-MEL-2 melanoma was more than 100 µM in each case. Moreover, the TGI with TK-10 renal, in the assay on NCI-H522 lung and in the assay on SN12C renal was more than 100 µM each time.
